Assay results: ChEMBL document CHEMBL3507680, “University of Dundee, Gates Library screen for HepG2 cell viability”

Assay: Human HepG2 cell viability assay in 384 well format
Format: toxicity, cell-based
Design: dose 125 nL, time 70.5 hour; concentration not given beside the values
Conditions: HepG2 cells, read-out: Inhibition

Compound	cytotoxicity at 70.5 h
CC(=O)CN1CCC2(CC1)c1ccccc1[C@@H](N1CCSCC1)[C@@H]2O	-5.27%
Cc1nc(CN2CCN(c3nc4c(s3)c(C)nn4C)CC2)cs1	-3.02%
Cc1ccc(C(=O)N2CC[C@@]3(O)CCCC[C@H]3C2)cc1	7.79%
Cc1cc(C2CCC2)nc(N2CCC3(CCNC(=O)CC3)CC2)n1	-13%
CCn1cc(Cn2cc(Cl)c(N)n2)c(C)n1	-2.35%
O=C(COCC1CC1)Nc1ncccc1I	2.42%
CNS(=O)(=O)CCNc1cc(C)nc2cc(C)nn12	-2.52%
Cc1cnn(CC2CCCN2Cc2noc(CC(C)C)n2)c1 (centres undefined)	-0.847%
Cc1nnc2n1CCN(CC(=O)NC(C)c1cccc3ccccc13)C2 (centres undefined)	2.87%
COc1ccc2c(c1)CCN(Cc1cscn1)CC2	-0.57%
CCS(=O)(=O)N1CCOC2(COCCN(C(C)=O)C2)C1 (centres undefined)	28.6%
O=C(Nc1cccc(N2CCN(CC3CC3)CC2)c1)N1CCCC1	0.629%
CCOc1cc(C)nc(N2CCN(Cc3nccn3C)CC2)n1	-0.961%
COc1ccc(CCC(=O)Nc2cccnc2N2CCCC2)cc1Br	-5.48%
CN1CCN(C(=O)c2cnsn2)c2ccc(F)cc21	-10.4%
Cc1nc(C)c(C(=O)NCCNC(=O)Cc2ccccc2)s1	-1.65%
CC(C)(C)C(=O)NCCCC(=O)NC(C)(C)c1ccc2c(c1)OCO2	3.16%
CCN(Cc1ccncc1)CC1(O)CCN(C(=O)c2cccc(C)n2)C1 (centres undefined)	-4.96%
Cc1cc(C)n(-c2nc(C(=O)NCCS(=O)(=O)N3CCCCC3)cs2)n1	-2.01%
CCOC(=O)CCN(Cc1cccnc1)C(=O)c1cc(Cl)c[nH]1	-6.02%
Cc1nn(-c2ccccc2)c2c1C(c1ccc(C(=O)O)cc1)CC(=O)N2 (centres undefined)	-3.05%
CCc1nc2n(n1)CCCC2NC(=O)Nc1cc(OC)ccc1C (centres undefined)	3.05%
Cc1ccc(C(=O)N2CCN(Cc3cccs3)CC2)c(=O)[nH]1	-3.21%

Compound	cytotoxicity at 70.5 h
Cc1ccc2c(n1)N(CC1CC1)CCN(S(=O)(=O)C1CC1)C2	-5.85%
Cc1nc2ccccc2c(=O)n1CCC(=O)N1CCNC(=O)C1	-2.46%
CN(C)CCN(Cc1ccco1)C(=O)Cc1cn2ccsc2n1	-3.81%
Cc1ccccc1C1(C(=O)NCCN2CCC(C)CC2)CCOCC1	17.6%
Cc1ncsc1C(=O)NC1CCN(Cc2ccc(C#N)cc2)CC1	-14.1%
Cc1cc(CNc2cc(-c3ccoc3C)nn2CCO)c(C)o1	-12.2%
CCN1CC2(CCN(C(=O)N(C)C)CC2)COc2ccccc2S1(=O)=O	4.83%
O=C(c1ncoc1-c1ccco1)N(Cc1ccco1)CC1CCCO1 (centres undefined)	-3.69%
CCNC(=O)[C@@H]1C[C@H](N)CN1C1CCN(c2ccccc2OC)CC1	-3.8%
NC(=O)c1cncc(-n2ccc(-c3cnccn3)n2)c1	-8.7%
CN(Cc1cnn(C)c1)C(=O)NC1CCN(c2ncccn2)CC1	12.2%
CCCN1CCC(CC(=O)N2CC(C)(C)[C@@](C)(O)C2)CC1	-2.11%
COc1ccc(CN2C[C@@H]3CN(C(=O)c4ccsc4)C[C@@H]3C2=O)cc1	-4.99%
CN(CC(=O)NCCCOc1ccc(F)cc1)c1ccc(C#N)cn1	-19%
CCn1ccnc1CN(C)Cc1nc(Cc2ccccc2Cl)no1	0.631%
CCOc1ccc(N2CCCN=C2NC(=O)c2ccccc2C)cc1	-12.8%
Cc1noc([C@]23COC[C@H]2CN(C(=O)Cc2ccsc2)C3)n1	-2.9%
CCc1nn(C)c(Cl)c1CN(CCOC)Cc1cnn(C)c1	0.921%
COc1ccccc1CNC(=O)C(C)n1cc2c(n1)c(C)nn2C (centres undefined)	-6.09%
Cn1cc(C(=O)N[C@H]2CN(Cc3nccs3)[C@@H]3CCCO[C@H]23)cn1	-8.57%
CC1CN(c2ncnc3sccc23)CCN1c1nccs1 (centres undefined)	-0.696%
COCCN(Cc1ccccn1)C(=O)C1CCCCCN1C (centres undefined)	-9.93%
COc1cccc2c1OCCCN(c1nc3c(c(=O)[nH]1)CCNCC3)C2	-3.8%

Compound	cytotoxicity at 70.5 h
Cc1nc(CN2C[C@@H]3CN(c4ncc(F)cn4)C[C@@H]3C2=O)cs1	-10.5%
CC(=O)N1CCN(C(=O)NC(C)Cn2ccnc2)CC1 (centres undefined)	-0.59%
Cc1cccc(CN2C[C@@H]3OCCN(CC(=O)N(C)C)[C@@H]3C2)c1	-8.16%
COCCN(CCOC)C(=O)c1ccn(-c2ccccc2Cl)n1	17.5%
CC(C)N1CCCC(C(=O)NCCCc2cnn(C)c2)C1 (centres undefined)	17.4%
CCN(Cc1ccco1)C(=O)C1=NN(c2ccccc2)C(=O)CN1	17.6%
Cc1ccc(CN2CC[C@@H](O)[C@@H]2Cc2ccccc2)o1	34%
Cc1nc(CN2CC(Cc3ccccc3)CC2=O)no1 (centres undefined)	-17.4%
N[C@@H]1CC[C@H](C(=O)NCCc2nc(-c3ccccc3)cs2)C1	-1.72%
O=C(NCC(F)(F)F)NC1CCCc2c1cnn2CCO (centres undefined)	-8.96%
Cc1noc(CN2CCN(C(C)C(=O)NCc3cccs3)CC2)n1 (centres undefined)	13.6%
Cc1c(CN2CCCC(O)C2)[nH]c2ccc(F)cc12 (centres undefined)	0.643%
CC(C)c1nc(C2CCCNC2)no1 (centres undefined)	14.1%
COc1ccc(C)cc1-c1csc(N)c1C#N	13.2%
c1ccc(C2CCCN2Cc2nnnn2C2CC2)cc1 (centres undefined)	-2.74%
c1cnn(CC2CN(c3ncnc4ccsc34)CCO2)c1 (centres undefined)	-0.0557%
O=C([C@H]1C[C@H]2OCC[C@H]2N(Cc2ccoc2)C1)N1CCCCO1	-6.32%
CN1CCc2nc(C3CCCN(C(=O)CC4CCCCC4)C3)ncc2C1 (centres undefined)	0.186%
CCS(=O)(=O)N1CCC2(CC1)CC(Oc1ccccn1)CO2 (centres undefined)	-18.2%
C1CC(NCC2CC2)CN(Cc2noc(C3CC3)n2)C1 (centres undefined)	-15.4%
COc1c(C)cnc(CN2CCOC(CNc3cccnn3)C2)c1C (centres undefined)	3.14%
Cc1ccc(N2CCC3(CCN(C(N)=O)CC3)CC2)nn1	-27.1%
Cn1cccc1C(=O)NCc1cn2c(n1)CN(S(=O)(=O)C1CC1)CC2	-10.3%

Compound	cytotoxicity at 70.5 h
Cn1cc(CC(=O)N2CCC(Nc3cccnn3)CC2)c2ccccc21	-4.98%
O=c1[nH]cnc2[nH]c(N3CCNCC3)nc12	-2.26%
Cc1cccc(NC2CCc3c2[nH]c(=O)n(C2CCCCC2)c3=O)c1C (centres undefined)	-19.3%
CCc1nc2n(n1)CC(NCCc1cccs1)CC2 (centres undefined)	3.55%
CC(C)N(C)Cc1nnc2n1CCN(CC1CC1)CC2	-0.138%
Cc1cccn2cc(CN3CCCC(c4noc(C5CC5)n4)C3)nc12 (centres undefined)	5.44%
CC(C)N(C)Cc1cncc2c1CCN(C1CCOCC1)C2	-6.55%
N#Cc1ccc(SCCC(=O)O)cc1	-7.41%
CN(CCc1ccncc1)Cc1c(C2CCCC2)[nH]c2ncccc12	-1.56%
O=C(Cc1cccnc1)NCCSc1ccccc1F	-11.1%
CC(C)Cc1noc(COc2ccc(N(C)C(N)=O)cc2)n1	-6.27%
Cc1nn(C)c(Cl)c1S(=O)(=O)N(C)c1ccc(Cl)cn1	0.786%
CCc1nc(Cn2cncc(Br)c2=O)no1	-8.84%
Cc1cc(S(=O)(=O)NC(C)(C)CN)c(F)cc1F	-9.88%
O=C(c1ccccn1)N1CCCC(c2nccn2CC2CCC2)C1 (centres undefined)	18.9%
c1csc(CN2CC(c3nc(-c4cnccn4)no3)C2)c1	-4.66%
CNC(=O)C1CCC(NC(=O)c2cc(C3CC3)n(C(C)(C)C)n2)CC1 (centres undefined)	-6.36%
Cc1cc(C(=O)N2CCC3(CCC(=O)N(CC(N)=O)C3)CC2)ccc1O	-14%
Cc1ncc(CNc2ccc(C(=O)NCc3ccco3)cc2C)s1	1.95%
O=C(O)[C@@H]1CN(C(=O)c2ccc(Cl)cc2)C[C@H]1c1cccc(F)c1	-12.9%
Cc1cnn(CC2CCCN2C(=O)Cc2cn3ccsc3n2)c1 (centres undefined)	-6.38%
CC1(C)[C@H](Cc2cc(CO)on2)C[C@@H]1NCc1ccc(CO)o1	14.7%
O=C1CC2(CCCNC2)C(=O)N1Cc1cccc(F)c1 (centres undefined)	-8.03%

Compound	cytotoxicity at 70.5 h
CC1CCN(S(=O)(=O)N2C[C@H](c3ccccc3)[C@@H](N)C2)CC1	27.7%
Cc1cnn(CC2CN(CCc3ccncc3)CCO2)c1 (centres undefined)	0.973%
COc1ccc(F)cc1S(=O)(=O)N1CCC(OC)CC1	-2.88%
COCCN1C(=O)c2ccc(C(=O)NCCc3c[nH]cn3)cc2C1=O	-5.32%
c1cc(-c2cn[nH]c2)ccc1CN1CCCCC1	13.1%
O=C(CN1CCCCC1Cn1cncn1)NC1CCN(C2CC2)CC1 (centres undefined)	-1.8%
CCn1nc(C)c(NC(=O)CN2CCN(C(C)=O)CC2)c1C	-10.9%
O=C(CSC1=NS(=O)(=O)c2cc(F)ccc2N1)Nc1ccc(Cl)c(Cl)c1	19.7%
COCc1cc(CN(C)C(=O)CCC(=O)Nc2cc(C)ccc2F)n[nH]1	-6.52%
CC(C)n1nc2c(cc1=O)CN(c1ncnc3ccsc13)CC2	13.9%
Cc1nsc(N2CCN(CC(=O)NCc3ccc(F)cc3)CC2)n1	-0.931%
CCC1=NC(SCC(=O)c2ccc(C)cc2)c2cc(CC)sc2N1 (centres undefined)	-15.9%
CC1(C)CNC(=O)c2nc(-c3nnc(-c4ccccc4)[nH]3)[nH]c2C1	0.339%
Cc1noc(C)c1CN1CCCCC1c1nc(-c2ccccc2)no1 (centres undefined)	-9.69%
CC(C)c1nnc(C2CCN(CC(=O)Nc3cccnc3)CC2)o1	-5.94%
CCOC1CC2(CCN(C(=O)COC)CC2)c2cc(C)ccc21 (centres undefined)	-9.53%
c1cnc(N2CCO[C@H]3CN(CC4CCC4)C[C@H]32)cn1	-4.76%
CCN(CC(=O)NC)C(=O)Cc1csc(C(C)C)n1	-1.76%
CC(C)(C)CC(=O)NCCn1ccc(-c2ccncc2)n1	-15.2%
CC(C)C(NC(=O)Cc1ccccc1)C(=O)NCc1ccc(O)nc1 (centres undefined)	-11.4%
Cc1ccc(CN2CC[C@@H](NS(C)(=O)=O)[C@@H]2Cc2ccncc2)o1	-10.7%
O=C(CSCC1CC1)N1CCCC(c2nccn2Cc2ccncc2)C1 (centres undefined)	-9.73%
